In ChEMBL document CHEMBL3112558 (Bioorg Med Chem Lett, 2014):

Tests used:
[1] = system: Human immunodeficiency virus 1; assay: Antiviral activity against HIV1 by cell based assay; type: functional, organism-based
Protease = Protease (Human immunodeficiency virus 1, UniProt Q9YQ12); assay: Inhibition of HIV-1 protease
Cytochrome P450 1A2 = target: T1, Cytochrome P450 1A2 (Homo sapiens, UniProt P05177); assay: Inhibition of human CYP1A2
T1 sequence (P05177 whole entry): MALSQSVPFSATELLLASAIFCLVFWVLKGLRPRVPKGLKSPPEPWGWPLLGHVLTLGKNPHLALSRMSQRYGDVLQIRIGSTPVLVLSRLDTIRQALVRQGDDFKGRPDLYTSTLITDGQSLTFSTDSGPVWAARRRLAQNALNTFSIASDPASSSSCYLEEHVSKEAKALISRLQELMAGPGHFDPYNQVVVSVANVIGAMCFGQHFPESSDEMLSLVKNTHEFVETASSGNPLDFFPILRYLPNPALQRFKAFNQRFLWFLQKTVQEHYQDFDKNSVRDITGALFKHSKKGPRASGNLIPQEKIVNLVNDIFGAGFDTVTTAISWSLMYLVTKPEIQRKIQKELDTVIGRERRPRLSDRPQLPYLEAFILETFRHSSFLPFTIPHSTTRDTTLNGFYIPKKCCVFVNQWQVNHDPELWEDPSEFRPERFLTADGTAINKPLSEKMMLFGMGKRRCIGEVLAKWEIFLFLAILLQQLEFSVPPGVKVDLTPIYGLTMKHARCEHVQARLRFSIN

Cytochrome P450 2D6 = Cytochrome P450 2D6 (Homo sapiens, UniProt P10635); assay: Inhibition of human CYP2D6
Cytochrome P450 2C19 = Cytochrome P450 2C19 (Homo sapiens, UniProt P33261); assay: Inhibition of human CYP2C19
Cytochrome P450 3A4 = Cytochrome P450 3A4 (Homo sapiens, UniProt P08684); assay: Inhibition of human CYP3A4-mdiated midazolam 1'-hydroxylase activity
Cytochrome P450 2C9 = Cytochrome P450 2C9 (Homo sapiens, UniProt P11712); assay: Inhibition of human CYP2C9
CYP3A4 = CYP3A4 (Homo sapiens, UniProt P08684); assay: Ratio of compound IC50 to ritonavir IC50 for human CYP3A4-mdiated midazolam 1'-hydroxylase activity; type: ADME; conditions: probe midazolam, read-out: Ratio IC50
CYP3A4, sequence (P08684 whole entry): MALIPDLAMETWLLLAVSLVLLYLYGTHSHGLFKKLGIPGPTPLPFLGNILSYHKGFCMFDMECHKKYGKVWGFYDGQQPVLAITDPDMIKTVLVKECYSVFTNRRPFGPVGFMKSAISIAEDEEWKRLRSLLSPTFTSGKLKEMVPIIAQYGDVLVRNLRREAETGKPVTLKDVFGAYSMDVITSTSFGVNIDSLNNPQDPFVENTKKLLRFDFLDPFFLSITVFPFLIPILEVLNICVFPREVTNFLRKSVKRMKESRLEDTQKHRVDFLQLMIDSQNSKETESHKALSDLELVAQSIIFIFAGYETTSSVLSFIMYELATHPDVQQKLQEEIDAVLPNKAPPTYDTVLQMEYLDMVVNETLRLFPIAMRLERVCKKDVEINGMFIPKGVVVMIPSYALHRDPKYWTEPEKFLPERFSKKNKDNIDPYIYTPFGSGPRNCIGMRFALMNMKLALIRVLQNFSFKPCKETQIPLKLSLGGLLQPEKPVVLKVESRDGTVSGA

Cytochrome P450 3A4, sequence (P08684 whole entry): as above
Protease, sequence (Q9YQ12 whole entry): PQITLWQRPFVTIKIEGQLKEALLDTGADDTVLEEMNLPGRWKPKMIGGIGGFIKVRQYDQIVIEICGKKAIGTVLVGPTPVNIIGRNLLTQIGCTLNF
Cytochrome P450 2D6, sequence (P10635 whole entry): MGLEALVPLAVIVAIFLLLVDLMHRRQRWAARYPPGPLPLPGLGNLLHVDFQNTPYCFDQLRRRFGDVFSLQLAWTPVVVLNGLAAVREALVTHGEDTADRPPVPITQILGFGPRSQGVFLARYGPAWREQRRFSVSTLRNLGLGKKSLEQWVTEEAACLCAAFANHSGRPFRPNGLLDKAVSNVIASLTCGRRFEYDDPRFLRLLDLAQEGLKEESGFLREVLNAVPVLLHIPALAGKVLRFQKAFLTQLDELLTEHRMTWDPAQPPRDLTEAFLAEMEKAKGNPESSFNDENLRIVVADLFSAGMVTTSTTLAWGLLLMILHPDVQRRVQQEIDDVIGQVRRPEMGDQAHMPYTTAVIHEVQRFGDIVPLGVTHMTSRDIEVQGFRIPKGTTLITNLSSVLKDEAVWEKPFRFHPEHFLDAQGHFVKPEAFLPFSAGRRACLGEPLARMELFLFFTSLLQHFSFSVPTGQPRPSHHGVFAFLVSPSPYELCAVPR
Cytochrome P450 2C19, sequence (P33261 whole entry): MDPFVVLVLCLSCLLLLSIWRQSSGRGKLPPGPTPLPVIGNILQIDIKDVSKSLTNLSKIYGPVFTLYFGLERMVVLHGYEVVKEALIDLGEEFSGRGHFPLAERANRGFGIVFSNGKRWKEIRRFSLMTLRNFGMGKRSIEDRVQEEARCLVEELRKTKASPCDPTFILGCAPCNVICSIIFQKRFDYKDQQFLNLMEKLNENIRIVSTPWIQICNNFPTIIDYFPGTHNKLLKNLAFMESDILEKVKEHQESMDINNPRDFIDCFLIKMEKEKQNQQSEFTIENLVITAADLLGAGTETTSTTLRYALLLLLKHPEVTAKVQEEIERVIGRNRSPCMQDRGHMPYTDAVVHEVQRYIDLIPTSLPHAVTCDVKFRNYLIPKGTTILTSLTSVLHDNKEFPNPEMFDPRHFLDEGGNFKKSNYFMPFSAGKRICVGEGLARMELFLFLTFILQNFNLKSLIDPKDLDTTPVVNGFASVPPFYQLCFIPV
Cytochrome P450 2C9, sequence (P11712 whole entry): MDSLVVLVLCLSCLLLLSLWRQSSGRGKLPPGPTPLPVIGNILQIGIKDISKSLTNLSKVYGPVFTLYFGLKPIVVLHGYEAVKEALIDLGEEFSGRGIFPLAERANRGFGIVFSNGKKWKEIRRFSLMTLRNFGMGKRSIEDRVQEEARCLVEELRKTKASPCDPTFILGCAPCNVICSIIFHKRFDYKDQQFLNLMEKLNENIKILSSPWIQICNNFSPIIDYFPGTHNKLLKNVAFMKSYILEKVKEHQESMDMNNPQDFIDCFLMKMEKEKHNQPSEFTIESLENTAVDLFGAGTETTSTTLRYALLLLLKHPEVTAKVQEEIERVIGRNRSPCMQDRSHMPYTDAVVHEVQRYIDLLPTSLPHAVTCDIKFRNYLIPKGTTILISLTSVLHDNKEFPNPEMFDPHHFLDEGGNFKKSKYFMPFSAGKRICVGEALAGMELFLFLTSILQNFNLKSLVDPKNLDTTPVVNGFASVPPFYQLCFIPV

Row | EC50 [1] | IC50 (Protease) | SMILES | other results
1 | 1.5 µM | 0.05 µM | CC(C)c1nc(CN(C)C(=O)N[C@@H](CO)C(=O)N[C@H](CC[C@H](Cc2ccccc2)NC(=O)OCc2cncs2)Cc2ccccc2)cs1 | 
2 | 0.4 µM | 0.035 µM | Cc1nc(CN(C)C(=O)N[C@H](C(=O)N[C@H](CC[C@H](Cc2ccccc2)NC(=O)OCc2cncs2)Cc2ccccc2)C(C)C)cs1 | 
3 | 20 µM | > 30 µM | CC(C)c1nc(CN(C)C(=O)N[C@@H](CCN(C)C)C(=O)N[C@H](CC[C@H](Cc2ccccc2)NC(=O)OCc2cncs2)Cc2ccccc2)cs1 | 
4 | 12 µM | 4.3 µM | CN(Cc1cncs1)C(=O)N[C@@H](CO)C(=O)N[C@H](CC[C@H](Cc1ccccc1)NC(=O)OCc1cncs1)Cc1ccccc1 | 
5 | > 30 µM | > 30 µM | CNCC[C@H](NC(=O)N(C)Cc1csc(C(C)C)n1)C(=O)N[C@H](CC[C@H](Cc1ccccc1)NC(=O)OCc1cncs1)Cc1ccccc1 | 
6 | 18 µM | 2 µM | CC(=O)NCC[C@H](NC(=O)N(C)Cc1csc(C(C)C)n1)C(=O)N[C@H](CC[C@H](Cc1ccccc1)NC(=O)OCc1cncs1)Cc1ccccc1 | 
7 | > 30 µM | > 30 µM | CC(C)c1nc(CN(C)C(=O)N[C@@H](Cc2cn(C)cn2)C(=O)N[C@H](CC[C@H](Cc2ccccc2)NC(=O)OCc2cncs2)Cc2ccccc2)cs1 | 
8 | 1 µM | 0.143 µM | CC(C)c1nc(CN(C)C(=O)N[C@@H](CC(N)=O)C(=O)N[C@H](CC[C@H](Cc2ccccc2)NC(=O)OCc2cncs2)Cc2ccccc2)cs1 | 
9 | > 10 µM | 3 µM | CC(C)c1nc(CN(C)C(=O)N[C@@H](Cc2c[nH]cn2)C(=O)N[C@H](CC[C@H](Cc2ccccc2)NC(=O)OCc2cncs2)Cc2ccccc2)cs1 | 
10 | > 30 µM | 11.8 µM | CC(C)c1nc(CN(C)C(=O)N[C@@H](COCc2ccccc2)C(=O)N[C@H](CC[C@H](Cc2ccccc2)NC(=O)OCc2cncs2)Cc2ccccc2)cs1 | 
11 | 0.65 µM |  | COC[C@H](NC(=O)N(C)Cc1csc(C(C)C)n1)C(=O)N[C@H](CC[C@H](Cc1ccccc1)NC(=O)OCc1cncs1)Cc1ccccc1 | 
12 | > 30 µM | > 30 µM | CC(C)[C@H](NC(=O)N(C)Cc1cscn1)C(=O)N[C@@H](CC[C@@H](Cc1ccccc1)NC(=O)OCc1cncs1)Cc1ccccc1 | IC50 (Cytochrome P450 3A4): 0.12 µM
13 | > 30 µM | > 30 µM | CC(C)c1nc(CN(C)C(=O)N[C@@H](CCCCN)C(=O)N[C@H](CC[C@H](Cc2ccccc2)NC(=O)OCc2cncs2)Cc2ccccc2)cs1 | 
14 | > 30 µM | > 30 µM | CC(C)c1nc(CN(C)C(=O)N[C@@H](CCN)C(=O)N[C@H](CC[C@H](Cc2ccccc2)NC(=O)OCc2cncs2)Cc2ccccc2)cs1 | IC50 (Cytochrome P450 1A2): > 25 µM; IC50 (Cytochrome P450 2D6): 0.8 µM; IC50 (Cytochrome P450 2C19): > 25 µM; IC50 (Cytochrome P450 2C9): > 25 µM
15 | 3 µM |  | CC(C)c1nc(CN(C)C(=O)NC(CN(C)C)C(=O)N[C@H](CC[C@H](Cc2ccccc2)NC(=O)OCc2cncs2)Cc2ccccc2)cs1 (some centres not stated) | 
16 | > 30 µM | 8 µM | CC(C)c1nc(CN(C)C(=O)N[C@@H](CCNS(C)(=O)=O)C(=O)N[C@H](CC[C@H](Cc2ccccc2)NC(=O)OCc2cncs2)Cc2ccccc2)cs1 | 

Row | EC50 [1] | IC50 (Protease) | SMILES | other results
17 | 0.8 µM | 0.242 µM | CC(C)[C@H](NC(=O)N(C)Cc1cscn1)C(=O)N[C@H](CC[C@H](Cc1ccccc1)NC(=O)OCc1cncs1)Cc1ccccc1 | IC50 (Cytochrome P450 3A4): 0.14 µM
18 | > 30 µM | > 30 µM | CC(C)c1nc(CN(C)C(=O)N[C@@H](CO)C(=O)N[C@@H](CC[C@@H](Cc2ccccc2)NC(=O)OCc2cncs2)Cc2ccccc2)cs1 | 
19 | > 30 µM | > 30 µM | CC(C)c1nc(CN(C)C(=O)N[C@@H](Cc2cnc[nH]2)C(=O)N[C@@H](CC[C@@H](Cc2ccccc2)NC(=O)OCc2cncs2)Cc2ccccc2)cs1 | IC50 (Cytochrome P450 1A2): 15 µM; IC50 (Cytochrome P450 2D6): 0.4 µM; IC50 (Cytochrome P450 2C19): 2.2 µM; IC50 (Cytochrome P450 2C9): 4.7 µM
20 | 4 µM | 3.59 µM | CC(C)[C@H](NC(=O)N(Cc1cscn1)C1CC1)C(=O)N[C@H](CC[C@H](Cc1ccccc1)NC(=O)OCc1cncs1)Cc1ccccc1 | IC50 (Cytochrome P450 3A4): < 0.1 µM; selectivity ratio (CYP3A4): 80
21 | 2.5 µM | 1.41 µM | CC(C)c1nc(CN(C(=O)N[C@@H](CO)C(=O)N[C@H](CC[C@H](Cc2ccccc2)NC(=O)OCc2cncs2)Cc2ccccc2)C2CC2)cs1 | 
22 | 2.7 µM | 0.039 µM | CC(C)c1nc(CN(C)C(=O)N[C@@H](CCO)C(=O)N[C@H](CC[C@H](Cc2ccccc2)NC(=O)OCc2cncs2)Cc2ccccc2)cs1 | 
23 | 0.7 µM | 0.386 µM | CC(C)[C@H](NC(=O)N(C)Cc1cncs1)C(=O)N[C@H](CC[C@H](Cc1ccccc1)NC(=O)OCc1cncs1)Cc1ccccc1 | IC50 (Cytochrome P450 3A4): 0.08 µM
24 | > 30 µM | > 30 µM | O=C(N[C@@H](CC[C@@H](Cc1ccccc1)NC(=O)[C@H](CO)NC(=O)N(Cc1cncs1)C1CC1)Cc1ccccc1)OCc1cncs1 | 
25 | 0.05 µM |  | CC(C)c1nc(CN(C)C(=O)N[C@H](C(=O)N[C@@H](Cc2ccccc2)C[C@H](O)[C@H](Cc2ccccc2)NC(=O)OCc2cncs2)C(C)C)cs1 [RITONAVIR] | 
26 | 5 µM | 0.03 µM | CC(C)c1nc(CN(C)C(=O)N[C@@H](Cn2cccn2)C(=O)N[C@H](CC[C@H](Cc2ccccc2)NC(=O)OCc2cncs2)Cc2ccccc2)cs1 | 
27 | 10 µM | 0.01 µM | CC(C)c1nc(CN(C)C(=O)N[C@@H](CC(=O)O)C(=O)N[C@H](CC[C@H](Cc2ccccc2)NC(=O)OCc2cncs2)Cc2ccccc2)cs1 | 
28 | 2.5 µM |  | CN(Cc1cncs1)C(=O)NCCC(=O)N[C@H](CC[C@H](Cc1ccccc1)NC(=O)OCc1cncs1)Cc1ccccc1 | IC50 (Cytochrome P450 3A4): 0.13 µM
29 | 0.75 µM | 0.55 µM | CC(C)c1nc(CN(C(=O)N[C@H](C(=O)N[C@H](CC[C@H](Cc2ccccc2)NC(=O)OCc2cncs2)Cc2ccccc2)C(C)C)C2CC2)cs1 | IC50 (Cytochrome P450 3A4): 0.21 µM
30 | > 30 µM | > 30 µM | CC(=O)NCC[C@H](NC(=O)N(C)Cc1csc(C(C)C)n1)C(=O)N[C@@H](CC[C@@H](Cc1ccccc1)NC(=O)OCc1cncs1)Cc1ccccc1 | IC50 (Cytochrome P450 1A2): > 25 µM; IC50 (Cytochrome P450 2D6): 0.8 µM; IC50 (Cytochrome P450 2C19): > 25 µM; IC50 (Cytochrome P450 2C9): 15.5 µM
31 | 20 µM | 19.3 µM | O=C(N[C@H](CC[C@H](Cc1ccccc1)NC(=O)[C@H](CO)NC(=O)N(Cc1cncs1)C1CC1)Cc1ccccc1)OCc1cncs1 | 

Row | SMILES | EC50 [1] | IC50 (Protease) | other results
32 | CC(C)c1nc(CN(C)C(=O)N[C@@H](CCN2CCOCC2)C(=O)N[C@H](CC[C@H](Cc2ccccc2)NC(=O)OCc2cncs2)Cc2ccccc2)cs1 [COBICISTAT] | > 30 µM | > 30 µM | IC50 (Cytochrome P450 1A2): > 25 µM; IC50 (Cytochrome P450 2D6): 9.2 µM; IC50 (Cytochrome P450 2C19): > 25 µM
33 | CC(C)c1nc(CN(C)C(=O)N[C@H](CCN2CCOCC2)C(=O)N[C@H](CC[C@H](Cc2ccccc2)NC(=O)OCc2cncs2)Cc2ccccc2)cs1 | > 30 µM | > 30 µM | IC50 (Cytochrome P450 1A2): > 25 µM; IC50 (Cytochrome P450 2D6): 3.1 µM; IC50 (Cytochrome P450 2C19): 1.3 µM
